Test results: patent US11066650B2, “Methods for the in vitro manufacture of gastric fundus tissue and compositions related to same” (Children's Hospital Medical Center, priority 2016, dated 2021)

Tests used:
[1] = system: posterior foregut spheroids; assay: Gastric specification of posterior foregut spheroids into fundic hGOs (qPCR/staining); format: cell-based, human
Protocol: Posterior foregut spheroids were collected and transferred to a three-dimensional culture system as previously described^36. Briefly, spheroids were suspended in 50 μl Matrigel (BD Biosciences) and plated as a droplet into 24-well plates. The matrigel was allowed to solidify for 10 minutes in the tissue culture incubator, then overlayed with basic gut media (BGM) containing growth factors and/or small molecule agonsists. BGM consisted of Advanced DMEM/F12 media (Gibco) supplemented with N2 (1×; Invitrogen), B27 (1×; Invitrogen), HEPES ([…]; Gibco), L-glutamine, penicillin/streptomycin, and EGF (100 ng/ml; R&D Systems). During days 6-9, spheroids were cultured with RA and noggin to specify the antral lineage. For fundic specification, CHIR was added during this stage. Antral hGOs were subsequently cultured in BGM with only EGF. Fundic hGOs were continuously exposed to CHIR from day 6-30. […] On day 20, organoids were collected and re-plated at a dilution of 1:10-1:20.
(§1) Total RNA was isolated using Nucleospin RNA II kit (Machery Nagel) and converted to cDNA as previously described7. qPCR was performed on Quantstudio 6 (Applied Biosystems) using Quantitect SYBR-Green master mix (Qiagen), and primer sequences are listed below.

[2] = system: hFGOs; assay: Screen for factors that increase parietal cell differentiation in hFGOs (qPCR at day 34); format: cell-based, human; settings: for parietal cell gene expression (ATP4A and ATP4B): day 30 hFGOs exposed two days, analysed at day 34
Protocol: For screening experiments to identify factors that increase parietal cell differentiation, hFGOs were grown to day 30, then exposed for two days to individual signaling pathway agonists and antagonists: DAPT (1 μM; Stemgent), SB431542 (10 μM; Stemgent), BMP4 (50 ng/ml; R&D Systems), PD0325901 (2 μM; Stemgent), Gastrin (10 nM; Sigma Aldrich), Dexamethasone (50 nM; Sigma Aldrich), and Wnt5a (50 ng/ml; R&D Systems). Following treatment, hFGOs were grown for two more days to day 34, then analyzed by qPCR.
as §1

[3] = system: hFGOs; assay: Acid secretion assay, luminal pH by SNARF-5F in fundic hGOs; format: cell-based, human
Protocol: Acid secretion assays were performed as previously described (Schumacher et al., 2015). hGOs were grown in the chambered coverglass (Thermo Scientific) and the chamber was placed on an inverted confocal microscope (Zeiss LSM 710), and experiments were performed under 5% CO2 and 37° C. conditions (incubation chamber, PeCon, Erbach, Germany).
(§2) Freshly isolated mouse gastric fundic glands or cultured hGO were incubated with acridine orange (10 μM), then acridine orange fluorescence was excited at 458 nm or 488 nm and images were collected at 600-650 nm (Red) or 500-550 nm (Green), respectively. On the other hand, to monitor hGOs luminal pH, the ratiometric pH sensitive dye, 5-(and-6)-carboxy SNARF-5F (5 mM stock: EX 560 nm, EM 565-605 (Green) and 620-680 (Red) nm: Invitrogen) was microinjected (46-92 nl) into the lumen and monitored. Fluorescent dye also added into medium. Histamine (100 μM; Sigma) was added to media, while famotidine (100 μM; Sigma) or omeprazole (100 μM; Sigma) were pre-incubated at least 30 min before histamine. Images were analyzed using MetaMorph software (Molecular Devices, Downingtown, Pa.). Background corrected 620-680/565-605 nm ratio values were converted to pH using a standard curve.

[4] = system: hFGOs; settings: histamine, hFGO glands
Protocol: as §2, with “Acid secretion assays were performed as previously described (Schumacher et al., 2015). hGOs were grown in the chambered coverglass (Thermo Scientific) and the chamber was placed on an inverted confocal microscope (Zeiss LSM 710), and experiments were performed under 5% CO2 and 37° C. conditions (incubation chamber, PeCon, Erbach, Germany). Freshly” for “Freshly”, “Histamine (100 μM;” left out

[5] = system: isolated mouse gastric glands; settings: histamine, after 60 minutes
Protocol: as §2, with “Acid secretion assays were performed as previously described (Schumacher et al., 2015). hGOs were grown in the chambered coverglass (Thermo Scientific) and the chamber was placed on an inverted confocal microscope (Zeiss LSM 710), and experiments were performed under 5% CO2 and 37° C. conditions (incubation chamber, PeCon, Erbach, Germany). Freshly” for “Freshly”, “Histamine (100 μM;” left out

[6] = system: hAGOs; settings: histamine 100 μM
Protocol: as §2, with “Acid secretion assays were performed as previously described (Schumacher et al., 2015). hGOs were grown in the chambered coverglass (Thermo Scientific) and the chamber was placed on an inverted confocal microscope (Zeiss LSM 710), and experiments were performed under 5% CO2 and 37° C. conditions (incubation chamber, PeCon, Erbach, Germany). Freshly” for “Freshly”, “Histamine (100 μM;” left out

[7] = CHIR for three days (days 6-9), analysed at day 9

## Cc1c[nH]c(-c2cnc(NCCNc3ccc(C#N)cn3)nc2-c2ccc(Cl)cc2Cl)n1 [CHIR99021]
[1]; [7]
  PDX1 expression: nearly complete repression
  SOX2 and GATA4 levels: unaffected
  expression of IRX2, IRX3, and IRX5: significantly increased expression
[1]; CHIR-treated hGOs
  intestinal markers CDX2, MUC2, CCK, or SCT: did not exhibit a significant increase
[1]; continued CHIR treatment through at least day 29
  fundic gene expression: stable induction of fundic gene expression
[1]; three-day pulse of CHIR from days 6-9, later stages
  specification of fundic identity: not sufficient to irreversibly specify a fundic identity

## O=C(NOC[C@H](O)CO)c1ccc(F)c(F)c1Nc1ccc(I)cc1F [PD0325901]
[2]
  parietal cell gene expression (ATP4A and ATP4B): substantial up-regulation

## NC(N)=Nc1nc(CSCCC(N)=NS(N)(=O)=O)cs1 [famotidine]
[3]; 100 μM, pre-incubated at least 30 min before histamine 100 μM
  histamine-induced decrease in luminal pH (acidification): blocked

## NCCc1c[nH]cn1 [histamine]
[4]
  acridine orange (AO) accumulation: AO accumulated in acidified cellular vesicles
[5]
  acridine orange (AO) accumulation: induced acridine orange (AO) dye accumulation in a canalicular-type pattern
[6]
  luminal pH response: no response
[3]; histamine 100 μM
  luminal pH response: swift and marked decrease in luminal pH

B1: FGF10: growth factor (R&D Systems) added to fundic hGOs day 20-30 (protein, UniProt O15520 38-208, looked up)
Fibroblast growth factor 10: QALGQDMVSPEATNSSSSSFSSPSSAGRHVRSYNHLQGDVRWRKLFSFTKYFLKIEKNGKVSGTKKENCPYSILEITSVEIGVVAVKAINSNYYLAMNKKGKLYGSKEFNNDCKLKERIEENGYNTYASFNWQHNGRQMYVALNGKGAPRRGQKTRRKNTSAHFLPMVVHS
[1]; FGF10 50 ng/ml, day 20-30, data not shown
  glandular morphogenesis driven by CHIR: enhance the glandular morphogenesis

B2: BMP4: growth factor, BMP signalling activator (R&D Systems) (protein, UniProt P12644 293-408, looked up)
Bone morphogenetic protein 4: SPKHHSQRARKKNKNCRRHSLYVDFSDVGWNDWIVAPPGYQAFYCHGDCPFPLADHLNSTNHAIVQTLVNSVNSSIPKACCVPTELSAISMLYLDEYDKVVLKNYQEMVVEGCGCR
[1]; Noggin replaced with BMP4, with Wnt/β-catenin activation (CHIR)
  CDX2 expression: robust expression of the intestinal transcription factor
[2]; BMP4 added to PD03, data not shown
  effect of PD03 on parietal cell gene expression: could enhance the effect of PD03
[2]
  parietal cell gene expression (ATP4A and ATP4B): did not affect PC gene expression
